The values below are quoted from earlier work in patent publication US5840324A, “Antiparasitic compositions” (Commonwealth Scientific and Industrial Organisation, priority 1993, dated 1998).

SMILES strings stand for the structures.

The conditions of data set [1]: for time of maximum concentration in the bloodstream: after oral administration; for absorption: conventional dosing; for activity of metabolic products: degradation products of absorbed compound.
In data set [2] the test system is plasma albumin.

As for `CCCSc1ccc2nc(NC(=O)OC)[nH]c2c1` [ABZ, [5-(propylthio)-1H-benzimidazol-2-yl]carbamic acid methyl ester], the “absorption of ABZ in the abomasum” value was “virtually no absorption”.

For the molecule `Cl.c1ccc([C@H]2CN3CCSC3=N2)cc1` [Levamisole, (-)-(S)-2,3,5,6-tetrahydro-6-phenylimidazo[2,1-b]thiazole hydrochloride], in data set [1], the “time of maximum concentration in the bloodstream” value (from here on “time of maximum concentration”) was 2 to 4 h and the absorption entry is “rapidly absorbed from the rumen”. For the same molecule, in data set [1] (in vivo), the “excretion of absorbed drug” value is on record as “rapidly excreted, predominantly in urine” and the metabolism result was “rapidly metabolised”.

Regarding `Cc1cc(C(C#N)c2ccc(Cl)cc2)c(Cl)cc1NC(=O)c1cc(I)cc(I)c1O` (stereo not drawn) [closantel, 5'-chloro-4'-(4-chloro-α-cyanobenzyl)-3,5-diiodosalicyl-o-toluidide], the “association with plasma albumin” value in data set [2] is reported as “very strongly associate with plasma albumin”. Also, the “retention in the bloodstream at efficacious levels” value in data set [1] (against blood-consuming parasites) is reported as 3-4 weeks. Also, the absorption result in data set [1] was “slowly absorbed”. Besides, the “dose lost in faeces” value in data set [1] (in vivo) is “about 50%”.

On to `Cc1ccsc1/C=C/C1=NCCCN1C` [morantel, (E)-1,4,5,6-tetrahydro-1-methyl-2-[2-(3-methyl-2-thienyl)vinyl]-pyrimidine], for which, in data set [1], the “time of maximum concentration” value is 2 to 4 h, the absorption result is “rapidly absorbed from the rumen” and the “activity of metabolic products” value was “completely inactive”. In addition, in data set [1] (in vivo), the “excretion of absorbed drug” value is “rapidly excreted, predominantly in urine” and the metabolism result was “degraded at a rate consistent with first-pass metabolism”.

On to `CN1CCCN=C1/C=C/c1cccs1` [pyrantel, 1,4,5,6-tetrahydro-1-methyl-2-[(E)-2-(2-thienyl)-vinyl]-pyrimidine-4,4'-methylenebis-(3-hydroxy-2-naphthoate)], for which, in data set [1], the “time of maximum concentration” value is 2 to 4 h, the absorption entry was “rapidly absorbed from the rumen” and the “activity of metabolic products” value is “completely inactive”. Further, in data set [1] (in vivo), the “excretion of absorbed drug” value is “rapidly excreted, predominantly in urine” and the metabolism result was “degraded at a rate consistent with first-pass metabolism”.
